Test results reported in ChEMBL document CHEMBL3507680, “University of Dundee, Gates Library screen for HepG2 cell viability”.

Test: Human HepG2 cell viability assay in 384 well format
Assay type: toxicity, cell-based
Parameters: dose 125 nL, time 70.5 hour; cytotoxicity at 70.5 h: concentration not given beside the values
Settings: HepG2 cells, read-out: Inhibition

Structure (SMILES)	cytotoxicity at 70.5 h [%]
O=C(CNCCn1cccn1)NCC1(c2ccccc2)CCCC1	0.609
Cc1cccc(CN2CCN3C[C@H](Oc4cncnc4)C[C@H]3C2)n1	-0.54
Cn1ccnc1CN1CC[C@H]2CO[C@H](CNc3ncccn3)[C@H]2C1	-5.82
O=S(=O)(NCCCn1cncn1)c1ccc2c(c1)CCCC2	-5.74
Cc1ccc(C(C)(O)CNC(=O)c2sccc2Br)o1 (centres undefined)	4.05
Cc1ccc(OCCCSC2=NCCN2)cc1	-3.22
CCn1cnnc1C1CCN(C(=O)c2cc3c(s2)CCC3)CC1	-12.3
COCc1noc(C2(c3ccc(F)cc3)CCOCC2)n1	28.8
O=C(NCC1CCCO1)c1ccc(S(=O)(=O)NCCc2cn[nH]c2)cc1 (centres undefined)	-4.87
Clc1ccc(C(CNCc2ccncc2)n2cccn2)cc1 (centres undefined)	-1.54
CC1=C(c2ccc(Cl)cc2)S(=O)(=O)N=C1N1CCc2ccccc21	-2.07
Cc1ncnc(NC(CC(C)(C)C)c2cccnc2)c1C (centres undefined)	-2.93
CC(C)c1cc(NCC(O)c2ccc(F)cc2)n2nccc2n1 (centres undefined)	0.769
CN(Cc1ccco1)[C@@H]1CN(Cc2ccc(F)cc2)[C@@H]2CCCO[C@H]12	6.23
COCC1c2c(cnn2CC2CC2)CCN1Cc1nccs1 (centres undefined)	-4.64
CCCC1SCCN1C(=O)c1ccc(-n2ncc(C#N)c2N)cc1 (centres undefined)	-3.53
COc1ncccc1CN1C[C@@H]2COC[C@]2(COCC(=O)N(C)C)C1	-6.1
Cc1nn(C)c(C)c1CC(=O)NCc1ccnc(N2CCOCC2)c1	-6.63
Cc1noc([C@@H](C)NCc2cccc(Cl)c2)c1C(=O)O	2.52
Cn1cc(C2CCCN2C(=O)c2ccc(Br)o2)cn1 (centres undefined)	-10.2
Cc1nc(CC(=O)N2CCC(c3nn(C)c4ncccc34)CC2)cs1	-9.42
CC(C)(C)c1nc(CNC(=O)N2CCc3ccccc3C2CO)no1 (centres undefined)	-2.31
COCCNC(=O)c1ccc2c(=O)n3c(nc2c1)CCCC3	-2.97

Structure (SMILES)	cytotoxicity at 70.5 h [%]
CSc1nnc(CC2CCN(C(=O)COc3cccnc3)CC2)n1C	-8.54
COc1cccc2c1OCC(C(=O)N1CCC(N3CCOC3=O)CC1)C2 (centres undefined)	-8.52
CCn1nccc1CNC(=O)C1CCC1	-2.95
CN1CC2(CCCN(c3cnccn3)C2)OC1=O (centres undefined)	-9.73
c1ncn(Cc2cn3c(n2)CN(CC2CCCC2)CC3)n1	1.84
Cc1ccc(C(=O)N2CCN(C(=O)NC(C)Cn3ccnc3)CC2)o1 (centres undefined)	-4.96
COc1ccccc1CNC(=O)C(C)N1CC(n2nc(C)cc2C)C1 (centres undefined)	-1.72
O=C(NC[C@]1(O)CN(Cc2ccccc2F)C[C@H]1O)c1cscn1	-8.78
O=C(Nc1cccn(Cc2ccc(F)cc2)c1=O)c1cnc[nH]1	-3.1
COCC(=O)NC(c1ccc(Cl)cc1)c1noc(C)n1 (centres undefined)	-2.49
COc1ccc(Cl)cc1C(=O)N1CCCC(c2cc(C)[nH]n2)C1 (centres undefined)	0.303
Cc1cccc(-c2nc(CN3CCCC3Cn3cc(C)cn3)no2)c1 (centres undefined)	6.59
O=C(c1cccnc1)N1CCC2(CC1)COCCN(c1ncccn1)C2	-9.03
Cc1nnc(CCNC(=O)C(c2ccc(F)cc2)N(C)C)[nH]1 (centres undefined)	25
CS(=O)(=O)c1ccc2c(c1)N(C(=O)Cc1ccc(F)cc1)CCC2	14.3
CN1C(=O)CC(C(=O)O)C12CCN(Cc1ccc(Cl)c(F)c1)CC2 (centres undefined)	9.92
CC1(C)CNC(=O)c2nc(CCN3CCC(C(N)=O)CC3)[nH]c2C1	-11.8
COCCn1c2c(ccc1=O)CCN(C(=O)Cc1cccs1)CC2	-5.4
O=C(NC1CCN(c2ccc(-c3ccccc3F)nn2)C1)c1ccc[nH]1 (centres undefined)	10.6
Cc1nnc(CN(C)C(=O)C(CC(C)C)N2CCCCC2=O)n1C (centres undefined)	-5.01
CC(=O)c1c(F)cccc1NCC(O)C1CC1 (centres undefined)	-19.1
CCn1nc(C)c2ncnc(NCCn3cccn3)c21	-1.42
COc1ccc(C(=O)NCc2ccco2)nn1	-6.23

Structure (SMILES)	cytotoxicity at 70.5 h [%]
Cc1cc(C(=O)NCc2ccccn2)no1	-6.09
Cc1cnc(C)c(N2CCCC(CO)(Cc3cccc(Cl)c3)C2)n1 (centres undefined)	21.2
Cn1ccc(C2CCCCCN2C(=O)c2cccnc2)n1 (centres undefined)	-2.46
CC(C)c1nccn1C1CCCN(C(=O)CCNS(C)(=O)=O)C1 (centres undefined)	-6.32
CCC1CN(c2cnn(C)c(=O)c2Cl)CCO1 (centres undefined)	5.82
Cc1nn(C)c(C)c1S(=O)(=O)N1CC[C@H]2O[C@@H](C)C[C@H]2C1	-8.7
Cc1ccc2c(c1)C1(CCNCC1)CC2NC(C)C (centres undefined)	-2.54
NCC1[C@H]2CN(Cc3ccccc3F)C[C@@H]12 (some centres undefined)	-6.6
COC(=O)c1cccn1C1CCN(S(=O)(=O)c2ccccc2)CC1	3.76
CC(C)C[C@@H]1N[C@H](C(=O)NC2CCOCC2)Cc2c[nH]c3cccc1c23	-4.79
COc1ccc2c(ccn2CCC(=O)Nc2ccc(C(N)=O)cc2)c1	-7.39
CCn1cc(CN2CCCN(C(=O)c3ccc(C#N)cc3)CC2)cn1	-4.62
CC(C)OCCN(Cc1cccc(O)c1)C1CCC(O)CC1 (centres undefined)	-3.81
O=C(Cc1ccc2c(c1)CCO2)N1CCCC1c1noc(C2CC2)n1 (centres undefined)	9.85
CCn1ccc(C(=O)N2CCCC2c2nnc(-c3scnc3C)o2)n1 (centres undefined)	-6.79
COc1ccc(OCCNC(=O)N2CCS(=O)(=O)CC2)cc1	-7.97
Fc1ccccc1OC1CCN(CCn2cc3ccccc3n2)CC1	-22
Cc1csc(NC(=O)C2CSCCC(=O)N2)n1 (centres undefined)	-0.709
COc1ccc(C(C)NCc2cccs2)cc1Cn1cccn1 (centres undefined)	15.6
CN(C)C1CC2(CCN(C(=O)C3(C#N)CC3)CC2)c2ccccc21 (centres undefined)	-10.7
CCC(=O)N(CC)CCc1nccs1	-9.4
Cc1nc(C(C)(C)NCc2ncc(C3CC3)o2)sc1C	2.05
CN(C)C(=O)CNC(=O)c1ccc(Cl)cc1F	45.3

Structure (SMILES)	cytotoxicity at 70.5 h [%]
COc1cc(N2CCC3(CCCN3Cc3ccn(C)n3)CC2)ncn1	-3.28
NCc1cn(CC2CCCN(C(=O)CC3=CCCCC3)C2)nn1 (centres undefined)	-11.9
O=C(Cc1ccccc1)N1CC[C@H]2[C@@H]1CCC(=O)N2Cc1ccncc1	1.86
Cc1cccc(-c2noc([C@@H]3Cc4nc[nH]c4CN3)n2)c1	-3
Fc1cccc(-n2ccc(CN3CCCC3Cn3cncn3)n2)c1 (centres undefined)	-9.03
CCc1cc(N[C@@H]2CC[C@@H](N)C2)n2nc(C)c(C)c2n1	-7.75
COCc1cncc2c1CCN(C(=O)c1ccoc1C)C2	-2.3
Nc1ccc(C(=O)N2C[C@@H]3CC[C@H](C2)N(Cc2ccccc2)C3)cn1	-2.24
c1cnc(N2CCC3(CN(CC4CCOC4)C3)C2)nc1 (centres undefined)	24.1
Cn1cc(C2COC3(CCN(C(=O)c4cnccn4)CC3)C2)cn1 (centres undefined)	-12.7
COc1cccc(C(=O)N2C[C@@H](c3ccccc3)[C@@H]3NCCCC[C@@H]32)c1	-8.79
Cc1nccc(CN2Cc3nccn3CC2c2ccccc2)n1 (centres undefined)	-4.01
O=C(O)CC(NC(=O)CCCc1cccs1)c1ccc(F)cc1 (centres undefined)	-2.27
Cn1cc(C#N)cc1C(=O)NC1(C#N)CCSCC1	-4.89
Cc1ccccc1CNC(=O)N1CCC(n2cncn2)CC1	-5.36
Cn1c(=O)n(C)c2nc(Cl)c(CC(=O)c3ccc(F)cc3)n2c1=O	0.873
Nc1nccc(N2CCC(c3cc(Cc4ccccc4)n[nH]3)CC2)n1	31.5
CN(C)CCNCC1CCOC(C)(C)C1 (centres undefined)	-10.1
Cc1cccc(CN2C(=O)CC[C@@H]3[C@H]2CCN3CC2CCOCC2)n1	-18.9
Cn1cc(C(=O)N2C[C@H]3C[C@H](Oc4ccccc4)C[C@H]3C2)cn1	-3.01
COCCCN1CCN(c2ncnc3nc(C)cc(C)c23)CC1	-4.17
CCc1ccc(C2CCCN2C(=O)CNC(=O)CCC(C)C)o1 (centres undefined)	-1.81
COCC1CN(Cc2ccc(C)o2)Cc2ncn(CC3CC3)c21 (centres undefined)	-8.02

Structure (SMILES)	cytotoxicity at 70.5 h [%]
Cc1ccc2c(c1)CCC21CCN(CCO)CC1	-1.71
O=C(CC1CCN(c2cccnn2)CC1)NC1CCOCC1	-17
COCCSc1ccc(C(C)NC(=O)Nc2cccnc2)cc1 (centres undefined)	-4.37
O=c1cc(Cn2ccnc2)nc2n1CCCN(Cc1ccncc1)C2	-21.3
Cc1cc(-n2nc(C)nc2-c2cn(CCN)nn2)ccn1	-6.15
Cc1n[nH]c(C2CN(C(=O)c3ccnc(C4CC4)n3)CCO2)n1 (centres undefined)	-10.4
CCN1CCN(C(=O)c2cc(-c3ccc(C)o3)n[nH]2)[C@H]2CS(=O)(=O)C[C@H]21	42.7
c1csc(CN2C[C@@H]3OCCN(CC4CCCO4)[C@@H]3C2)c1 (some centres undefined)	-7.54
c1c(-c2nc(CN3CCOCC3)no2)nnn1CC1CCCCC1	-13.5
OC[C@H]1CC[C@]2(CC1)CN(Cc1ccccn1)Cc1ccccc1O2	-13.2
CSCCCN1CCn2nc(CNC(C)=O)cc2C1	14.2
Cc1ccc(CNC(=O)c2nc3c(o2)CN(c2ncccn2)C3)o1	-2.56
NCC(c1ccc(Cl)cc1)N1CCc2sccc2C1 (centres undefined)	7.32
CCCN(CCC)S(=O)(=O)NC(C)C(=O)N(C)C (centres undefined)	-6.45
CO[C@H]1C[C@@H](O)C12CCN(C(=O)c1cccc(CCC(C)(C)O)c1)CC2	-0.132
CC(C)Cc1cc(C(=O)NC(C)C)[nH]n1	-4.46
CCc1nc(CC(=O)N2CCOCC2c2ncon2)cs1 (centres undefined)	-3.4
c1cncc(CN2CCCCC2c2ccc(Nc3cnccn3)nc2)c1 (centres undefined)	-5.32
CN(C)S(=O)(=O)CCCN1CCc2c(ncn2C2CC2)C1	9.65
O=C(CN1CCNC1=O)NCc1ccc2sccc2c1	-9.13
COCCN1CC(=O)N2CC[C@@H](O)C[C@H]2C1=O	28.2
Cc1nc2c(c(=O)n1C)CN(C(=O)C1CCCN(C(=O)N(C)C)C1)C2 (centres undefined)	-0.169
